Test results as given in the NIST ThermoML archive (doi:10.1021/acs.jced.7b00236).
Values joined by “and” are separate entries in the source; they are usually repeats but may differ in a detail not shown here. Equal values may be shown once. ± gives the expanded uncertainty stated by the source.

Settings: Liquid, Ebulliometric method (Recirculating still)

SMILES	vapor or sublimation pressure (303.15 K)	vapor or sublimation pressure (308.15 K)	vapor or sublimation pressure (313.15 K)	vapor or sublimation pressure (318.15 K)	vapor or sublimation pressure (323.15 K)
CC(C)CC(C)(C)C [2,2,4-trimethylpentane]	8.33 ± 0.14 kPa	10.44 ± 0.14 kPa	12.97 ± 0.14 kPa	15.98 ± 0.15 kPa	19.54 ± 0.15 kPa
CCOC(=O)OCC [diethyl carbonate]	1.95 ± 0.14 kPa and 1.99 ± 0.14 kPa	2.61 ± 0.14 kPa and 2.65 ± 0.14 kPa	3.43 ± 0.14 kPa and 3.45 ± 0.14 kPa	4.46 ± 0.14 kPa and 4.51 ± 0.14 kPa	5.75 ± 0.14 kPa and 5.83 ± 0.14 kPa
CCCCCCC [heptane]	7.79 ± 0.14 kPa	9.85 ± 0.14 kPa	12.34 ± 0.14 kPa	15.33 ± 0.15 kPa	18.9 ± 0.15 kPa
Cc1ccccc1 [toluene]	4.87 ± 0.14 kPa	6.32 ± 0.14 kPa	7.78 ± 0.14 kPa	9.89 ± 0.14 kPa	12.27 ± 0.14 kPa
